Source: ChEMBL document CHEMBL1136988, “1-amino-4-benzylphthalazines as orally bioavailable smoothened antagonists with antitumor activity” (J Med Chem, 2009)

How the values were obtained:
[1] = molecular target: T1, Protein smoothened (Mus musculus, UniProt P56726); assay type: cell-based, TM3
Description: Inhibition of Smoothened receptor in mouse TM3 cells transfected with pTA-8xGli-Luc reporter gene assessed as inhibition of 25 nM 3-chloro-4,7-difluoro-N-(4-methoxy-3-(pyridin-4-yl)benzyl)-N-(4-(methylamino)cyclohexyl)benzo[b]thiophene-2-carboxamide-induced Hedgehog pathway activation by Gli shift assay

[2] = molecular target: T1, Protein smoothened; assay: Inhibition of Smoothened receptor in mouse TM3 cells transfected with pTA-8xGli-Luc reporter gene assessed as inhibition of 1 nM 3-chloro-4,7-difluoro-N-(4-methoxy-3-(pyridin-4-yl)benzyl)-N-(4-(methylamino)cyclohexyl)benzo[b]thiophene-2-carboxamide-induced Hedgehog pathway activation by Gli shift assay; assay type: cell-based
[3] = molecular target: T1, Protein smoothened; assay: Displacement of [3H]3-chloro-4,7-difluoro-N-(4-methoxy-3-(pyridin-4-yl)benzyl)-N-(4-(methylamino)cyclohexyl)benzo[b]thiophene-2-carboxamide from mouse Smoothened receptor expressed in CHO-K1 cells by membrane filter binding assay; assay type: cell-based
[4] = molecular target: Protein smoothened (Homo sapiens, UniProt Q99835); assay: Displacement of [3H]3-chloro-4,7-difluoro-N-(4-methoxy-3-(pyridin-4-yl)benzyl)-N-(4-(methylamino)cyclohexyl)benzo[b]thiophene-2-carboxamide from human Smoothened receptor expressed in CHO-K1 cells by membrane filter binding assay; assay type: cell-based
Chain of Protein smoothened (Homo sapiens, UniProt Q99835) (Q99835 whole entry): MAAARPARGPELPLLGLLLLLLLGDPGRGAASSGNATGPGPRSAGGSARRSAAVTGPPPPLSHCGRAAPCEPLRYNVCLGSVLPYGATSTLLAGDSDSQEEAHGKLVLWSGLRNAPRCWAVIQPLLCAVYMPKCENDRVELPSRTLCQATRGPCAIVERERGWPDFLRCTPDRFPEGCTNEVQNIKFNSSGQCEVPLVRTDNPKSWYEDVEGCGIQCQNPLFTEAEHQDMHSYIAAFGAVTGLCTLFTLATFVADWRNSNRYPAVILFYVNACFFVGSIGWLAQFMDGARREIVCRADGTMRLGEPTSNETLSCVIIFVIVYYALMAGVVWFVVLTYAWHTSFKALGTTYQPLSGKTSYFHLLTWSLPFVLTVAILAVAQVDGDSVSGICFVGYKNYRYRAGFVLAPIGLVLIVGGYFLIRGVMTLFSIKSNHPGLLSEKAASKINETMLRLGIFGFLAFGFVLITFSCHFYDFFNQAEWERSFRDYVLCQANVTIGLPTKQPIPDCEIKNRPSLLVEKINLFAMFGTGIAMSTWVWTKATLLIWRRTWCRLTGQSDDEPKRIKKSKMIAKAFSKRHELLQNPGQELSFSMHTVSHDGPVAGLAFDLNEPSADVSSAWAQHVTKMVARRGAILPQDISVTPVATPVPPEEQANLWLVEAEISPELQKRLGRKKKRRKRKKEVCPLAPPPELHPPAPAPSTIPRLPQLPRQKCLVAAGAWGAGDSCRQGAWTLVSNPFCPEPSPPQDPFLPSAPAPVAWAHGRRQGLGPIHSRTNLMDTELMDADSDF

[5] = AUC (0 to infinity) in nude mouse plasma at 1 mg/kg, iv after 24 hrs; assay type: ADME, organism-based; design: time infinity, dose 1 mg/kg, route intravenous
[6] = AUC (0 to infinity) in nude mouse plasma at 5 mg/kg, po after 24 hrs; assay type: ADME, organism-based; design: time infinity, dose 5 mg/kg, route oral
[7] = AUC (0 to infinity) in nude mouse brain at 5 mg/kg, po after 24 hrs; assay type: ADME, organism-based; design: dose 5 mg/kg, route oral, time infinity
[8] = Ratio of AUC (0 to infinity) in brain to AUC (0 to infinity) in plasma of nude mouse at 5 mg/kg, po after 24 hrs; assay type: ADME, organism-based; design: dose 5 mg/kg, route oral; details: read-out: Ratio AUC
[9] = Clearance in nude mouse plasma at 1 mg/kg, iv after 24 hrs; assay type: ADME, organism-based; design: dose 1 mg/kg, route intravenous
[10] = Volume of distribution at steady state in nude mouse plasma at 1 mg/kg, iv after 24 hrs; assay type: ADME, organism-based; design: dose 1 mg/kg, route intravenous; details: read-out: Vdss
[11] = Half life in nude mouse plasma at 1 mg/kg, iv after 24 hrs; assay type: ADME, organism-based; design: dose 1 mg/kg, route intravenous
[12] = Cmax in nude mouse plasma at 5 mg/kg, po after 24 hrs; assay type: ADME, organism-based; design: dose 5 mg/kg, route oral
[13] = Cmax in nude mouse brain at 5 mg/kg, po after 24 hrs; assay type: ADME, organism-based; design: dose 5 mg/kg, route oral
[14] = Ratio of Cmax in brain to Cmax in plasma of nude mouse at 5 mg/kg, po after 24 hrs; assay type: ADME, organism-based; design: dose 5 mg/kg, route oral; details: read-out: Ratio_Cmax_brain/plasma
[15] = Tmax in nude mouse plasma at 5 mg/kg, po after 24 hrs; assay type: ADME, organism-based; design: dose 5 mg/kg, route oral
[16] = Oral bioavailability in nude mouse plasma at 5 mg/kg after 24 hrs; assay type: ADME, organism-based
[17] = test system: Mus musculus; assay: Hepatic blood flow in nude mouse at 1 mg/kg, iv; assay type: ADME, organism-based, Liver; design: dose 1 mg/kg, route intravenous; details: in vivo
[18] = test system: Mus musculus; assay: Total body water content in nude mouse at 1 mg/kg, iv; assay type: ADME, organism-based; design: dose 1 mg/kg, route intravenous; details: in vivo
[19] = Antitumor activity against mouse Ptch+/- p53-/- medulloblastoma cells xenografted Harlan nu/nu mouse at 5 mg/kg, po qd administered after 7 days tumor implantation measured after 12 days relative to control; assay type: functional, Medulloblastoma cell
[20] = Antitumor activity against mouse Ptch+/- p53-/- medulloblastoma cells xenografted Harlan nu/nu mouse at 10 mg/kg, po qd administered after 7 days tumor implantation measured after 12 days relative to control; assay type: functional, Medulloblastoma cell
[21] = Antitumor activity against mouse Ptch+/- p53-/- medulloblastoma cells xenografted Harlan nu/nu mouse at 20 mg/kg, po qd administered after 7 days tumor implantation measured after 12 days relative to control; assay type: functional, Medulloblastoma cell
[22] = Antitumor activity against mouse Ptch+/- p53-/- medulloblastoma cells xenografted Harlan nu/nu mouse at 40 mg/kg, po qd administered after 7 days tumor implantation measured after 12 days relative to control; assay type: functional, Medulloblastoma cell
[23] = Antitumor activity against mouse Ptch+/- p53-/- medulloblastoma cells xenografted Harlan nu/nu mouse at 5 mg/kg, po bid administered after 7 days tumor implantation measured after 12 days relative to control; assay type: functional, Medulloblastoma cell
[24] = Antitumor activity against mouse Ptch+/- p53-/- medulloblastoma cells xenografted Harlan nu/nu mouse at 10 mg/kg, po bid administered after 7 days tumor implantation measured after 12 days relative to control; assay type: functional, Medulloblastoma cell
[25] = Antitumor activity against mouse Ptch+/- p53-/- medulloblastoma cells xenografted Harlan nu/nu mouse assessed as tumor regression at 20 mg/kg, po bid administered after 7 days tumor implantation measured after 12 days; assay type: functional, Medulloblastoma cell
[26] = Antitumor activity against mouse Ptch+/- p53-/- medulloblastoma cells xenografted Harlan nu/nu mouse assessed as tumor regression at 40 mg/kg, po bid administered after 7 days tumor implantation measured after 12 days; assay type: functional, Medulloblastoma cell
[27] = test system: Medulloblastoma cell; assay: Antitumor activity against mouse Ptch+/- p53-/- medulloblastoma cells xenografted po dosed Harlan nu/nu mouse assessed as tumor regression administered after 7 days tumor implantation measured after 12 days; assay type: functional, organism-based
[28] = test system: Mus musculus; assay: Toxicity in mouse Ptch+/- p53-/- medulloblastoma cells xenografted Harlan nu/nu mouse at 5 to 40 mg/kg, po qd administered after 7 days tumor implantation measured after 12 days; assay type: organism-based; design: dose 5-40 mg/kg, route oral; details: in vivo, 288 h
[29] = test system: Mus musculus; assay: Toxicity in mouse Ptch+/- p53-/- medulloblastoma cells xenografted Harlan nu/nu mouse at 5 to 40 mg/kg, po bid administered after 7 days tumor implantation measured after 12 days; assay type: organism-based; design: dose 5-40 mg/kg, route oral; details: in vivo, 288 h
[30] = test system: Mus musculus; assay: Toxicity in mouse Ptch+/- p53-/- medulloblastoma cells xenografted Harlan nu/nu mouse assessed as change in body weight at 5 to 40 mg/kg, po qd administered after 7 days tumor implantation measured after 12 days; assay type: organism-based; design: dose 5-40 mg/kg, route oral; details: in vivo, 288 h
[31] = test system: Mus musculus; assay: Toxicity in mouse Ptch+/- p53-/- medulloblastoma cells xenografted Harlan nu/nu mouse assessed as change in body weight at 5 to 40 mg/kg, po bid administered after 7 days tumor implantation measured after 12 days; assay type: organism-based; design: dose 5-40 mg/kg, route oral; details: in vivo, 288 h
[32] = test system: Medulloblastoma cell; assay: Inhibition of Gli mRNA expression in mouse medulloblastoma cells at 5 mg/kg, po by RT-PCR; assay type: functional, organism-based; design: dose 5 mg/kg; details: TDE = time-dependent effect
[33] = test system: Medulloblastoma cell; assay: Inhibition of Gli mRNA expression in mouse medulloblastoma cells at 40 mg/kg, po by RT-PCR; assay type: functional, organism-based; design: dose 40 mg/kg; details: TDE = time-dependent effect
[34] = test system: Medulloblastoma cell; assay: Inhibition of Gli mRNA expression in mouse medulloblastoma cells after 1 to 24 hrs by RT-PCR; assay type: functional
[35] = Tmax in nude mouse brain at 5 mg/kg, po after 24 hrs; assay type: ADME, organism-based; design: dose 5 mg/kg, route oral

T1 sequence (P56726 whole entry): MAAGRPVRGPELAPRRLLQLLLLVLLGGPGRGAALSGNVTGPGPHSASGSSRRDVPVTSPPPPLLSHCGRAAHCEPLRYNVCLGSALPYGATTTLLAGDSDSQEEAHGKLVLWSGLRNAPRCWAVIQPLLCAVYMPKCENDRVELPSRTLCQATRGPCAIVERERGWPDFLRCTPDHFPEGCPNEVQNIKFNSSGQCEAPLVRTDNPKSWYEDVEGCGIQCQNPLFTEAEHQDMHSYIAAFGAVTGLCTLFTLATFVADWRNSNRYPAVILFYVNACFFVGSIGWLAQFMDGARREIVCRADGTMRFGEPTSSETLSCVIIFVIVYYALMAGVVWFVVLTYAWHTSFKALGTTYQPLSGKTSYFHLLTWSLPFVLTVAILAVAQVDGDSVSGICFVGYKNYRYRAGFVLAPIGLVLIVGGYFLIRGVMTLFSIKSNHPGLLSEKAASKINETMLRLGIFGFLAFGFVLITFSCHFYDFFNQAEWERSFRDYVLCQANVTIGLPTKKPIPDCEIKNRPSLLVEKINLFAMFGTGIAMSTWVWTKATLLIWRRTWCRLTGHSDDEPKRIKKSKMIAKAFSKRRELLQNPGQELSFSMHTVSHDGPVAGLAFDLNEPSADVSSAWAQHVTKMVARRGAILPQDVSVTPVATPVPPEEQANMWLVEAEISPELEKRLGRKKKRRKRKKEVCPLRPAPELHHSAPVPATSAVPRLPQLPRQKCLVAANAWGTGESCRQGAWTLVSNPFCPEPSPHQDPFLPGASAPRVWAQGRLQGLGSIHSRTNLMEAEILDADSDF

IC50 [1]: 35 nM | IC50 [2]: 2.7 nM | IC50 [3]: 5 nM | IC50 [4]: 8 nM | AUC(0-inf) [5]: 7.23 µM·h | AUC(0-inf) [6]: 26.5 µM·h | AUC(0-inf) [7]: 8.82 µM·h | Kp at 24 h [8]: 0.33 | clearance [9]: 5.24 mL/min/kg | Vd [10]: 0.2 L/kg | half-life [11]: 31.8 min | Cmax [12]: 15.7 µM | Cmax [13]: 2390 nM | Kp at 24 h [14]: 0.15 | Tmax [15]: 15 min | bioavailability [16]: 73% | QH [17]: 90 mL/min/kg | Activity [18]: 0.7 L/kg | Tmax [35]: 15 min
Compound: CC(C)(O)c1ccc(N2CCN(c3nnc(Cc4ccccc4)c4ccccc34)CC2)nc1
T/C [19]: 80% | T/C [20]: 77% | T/C [21]: 45% | T/C [22]: 19% | T/C [23]: 69% | T/C [24]: 40% | T/C [25]: 15% | T/C [26]: 71% | Activity [27]: Dose-dependent effect | Activity [28]: Non-toxic | Activity [29]: Non-toxic | Activity [30]: Non-toxic | Activity [31]: Non-toxic | Activity [32]: tde | Activity [33]: tde | Activity [34]: Dose-dependent effect
